{
  "source": "patent US12630501B2",
  "about": "“Anti-fibrotic compounds and use thereof” (HADASIT MEDICAL RESEARCH SERVICES AND DEVELOPMENT LTD., priority 2019, dated 2026)",
  "key": {"[1]": {"test_system": "Ku70", "assay": "Ku70 immunoprecipitation with pan-acetyl / Ku70 immunoblot in IPF-lung myofibroblasts", "type": "cell-based, human", "conditions": "CMH 30 μM, 72 h", "experimental": "(§1) Human lung myofibroblasts Differentiated fibroblasts from IPF-lungs and controls from patient lung biopsies performed for tumor diagnosis were obtained under a protocol detailed in Wallach-Dayan et al., J. Autoimmun. 59: 67-76, 2015. LL 97A (AlMy) (ATCC® CCL-191™)-IPF-lung, and LL 24 (ATCC® CCL-151™)-normal lung fibroblast cell lines were used.\n(§2) Immunoprecipitation and immunoblotting Standard protocols were performed as described in Golan-Gerstl et al., Am. J. Respir. Cell Mol. Biol. 47: 271-279, 2012.\n(§3) FLIP downregulation from an OD of 1.85 to 0.49 (about 3.5-fold) was detected in WB (FIG. 4F), and a […] from a mean fluorescence intensity (MFI)=10^3 to only 10^1 was detected with flow cytometry (FIG. 4G). Thus, SIRT1-mediated Ku70-deacetylation stabilizes IPF-lung myofibroblast FLIP via Ku70/FLIP complex. This effect of CMH on Ku70 further disrupts Ku70/FLIP complex and destabilizes FLIP in IPF-lung myofibroblasts.\n(§4) IPF cell line ATCC-191 (0.5×10^6), were exposed in culture (10% DMEM) to a compound of Formula 6 (1 or 3 μM) vs. 4% DMSO (vehicle) for 16 h. Ku70 immunoprecipitation with subsequent pan-acetyl (FIG. 8A) and immunoblots of Ku70 with anti-Ku70 mAb (FIG. 8B) or FLIP with anti-FLIP mAb (FIG. 8C) were measured. […] IPF-lung myofibroblasts decreased FLIP expression from an OD of 1.00 to 0.51 (about twofold, FIG. 8C)."}, "[2]": {"test_system": "FLIP", "assay": "FLIP protein by Western blot and flow cytometry in IPF-lung myofibroblasts", "type": "cell-based, human", "conditions": "CMH 30 μM, 72 h", "experimental": "as §1\nFLIP protein in lung myofibroblasts Standard WB and flow cytometry were performed as described in Cohen et al., Am. J. Respir. Cell Mol. Biol. 40: 231-238, 2009.\nas §3, §4\nIPF cell line ATCC-191 (0.5×10^6), were exposed in culture (10% DMEM) to a compound of Formula 12 (1 μM), vs. 4% DMSO (vehicle) for 16 h. Immunoblots of FLIP with anti-FLIP mAb were performed (FIG. 9). […] Thus, the compound of Formula 12 attenuates FLIP stabilization in IPF-lung myofibroblast."}, "[3]": {"test_system": "Ku70", "assay": "Ku70-IP and immunoblots of myofibroblasts isolated from lungs of BLM-treated mice given CMH", "type": "in vivo, mouse", "conditions": "CMH 30 μM OA day 6, sacrifice day 14", "experimental": "Oropharyngeal aspiration (OA) and induction of lung fibrosis in mice Oropharyngeal aspiration of BLM (OA-BLM) was performed as detailed in Golan-Gerstl et al., Am. J. Respir. Cell Mol. Biol. 36: 270-275, 2007. Lung fibrosis was assessed via semi-quantitative morphological index (Wallach-Dayan et al., PNAS USA 104: 20460-20465, 2007). Lung collagen was measured using a Sircol Collagen Assay kit (Biocolor, Belfast, Northern Ireland), and standard protocol of trichrome staining. Isolation of mouse lung myofibroblasts Myofibroblast isolation and culture was performed as described in Golan-Gerstl et al., Am. J. Respir. Cell Mol. Biol. 36: 270-275, 2007; and Wallach-Dayan et al., PNAS USA 104: 20460-20465, 2007.\nas §2\nCMH (30 μM) or control vehicle 4% DMSO were administered into WT mice by a second OA on day 6 of OA-BLM (0.05 mU), or control-saline (FIG. 6A). Similar to SIRT1^y/y mice, BLM-treated mice and control saline-treated mice (FIG. 6B) that were exposed to CMH vs. vehicle alone, had low SIRT1 and FLIP expression in lung sections. Myofibroblasts isolated from lungs of BLM-treated mice had decreased Ku70 binding to SIRT1 from 1.2 to 0.6 (FIG. 6C), increased Ku70 acetylation from an OD of 0.1 to 0.91 (FIG. 6D), and decreased Ku70/FLIP complex from an OD of 2.43 to 1.55 (FIG. 6E). Compared to vehicle, CMH-treated mice reduced H&E and collagen-trichrome staining (FIG. 6F, upper and lower panels, respectively), SMI grade (average SMI from 2 to 1.1, FIG. 6G), and collagen in Sircol assay (from 200 μg to only 50 μg, FIG. 6H). Thus, In vivo inhibition of SIRT1 activity, FLIP expression, and lung fibrosis were detected in CMH-BLM-treated mice and attenuation of deacetylation activity on Ku70, a decrease in Ku70/FLIP complex, and FLIP expression levels were detected in myofibroblasts isolated from lungs of CMH-BLM-treated mice. […]"}, "[4]": {"test_system": "BLM-treated C57BL/6 WT mice", "conditions": "prior finding restated; cited from earlier work"}, "[5]": {"molecular_target": "HDAC1 (Homo sapiens, UniProt Q13547)", "sequence (Q13547 whole entry, species assumed)": "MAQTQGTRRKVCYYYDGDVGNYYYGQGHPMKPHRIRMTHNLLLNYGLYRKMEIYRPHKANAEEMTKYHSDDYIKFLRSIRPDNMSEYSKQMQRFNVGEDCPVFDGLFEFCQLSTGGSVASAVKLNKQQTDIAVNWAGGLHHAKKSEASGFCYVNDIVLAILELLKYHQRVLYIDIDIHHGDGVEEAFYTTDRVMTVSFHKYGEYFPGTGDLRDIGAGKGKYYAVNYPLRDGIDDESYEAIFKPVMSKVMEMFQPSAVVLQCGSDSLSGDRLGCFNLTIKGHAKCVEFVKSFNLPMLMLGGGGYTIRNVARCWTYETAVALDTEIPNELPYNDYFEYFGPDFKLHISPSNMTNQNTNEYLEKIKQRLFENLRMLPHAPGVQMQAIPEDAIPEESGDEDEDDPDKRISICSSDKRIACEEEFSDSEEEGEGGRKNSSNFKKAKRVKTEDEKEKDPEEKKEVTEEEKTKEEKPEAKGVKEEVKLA", "conditions": "prostate cancer cells; cited from earlier work"}, "[6]": {"molecular_target": "HDACS (Homo sapiens, UniProt Q9UQL6)", "sequence (Q9UQL6 whole entry)": "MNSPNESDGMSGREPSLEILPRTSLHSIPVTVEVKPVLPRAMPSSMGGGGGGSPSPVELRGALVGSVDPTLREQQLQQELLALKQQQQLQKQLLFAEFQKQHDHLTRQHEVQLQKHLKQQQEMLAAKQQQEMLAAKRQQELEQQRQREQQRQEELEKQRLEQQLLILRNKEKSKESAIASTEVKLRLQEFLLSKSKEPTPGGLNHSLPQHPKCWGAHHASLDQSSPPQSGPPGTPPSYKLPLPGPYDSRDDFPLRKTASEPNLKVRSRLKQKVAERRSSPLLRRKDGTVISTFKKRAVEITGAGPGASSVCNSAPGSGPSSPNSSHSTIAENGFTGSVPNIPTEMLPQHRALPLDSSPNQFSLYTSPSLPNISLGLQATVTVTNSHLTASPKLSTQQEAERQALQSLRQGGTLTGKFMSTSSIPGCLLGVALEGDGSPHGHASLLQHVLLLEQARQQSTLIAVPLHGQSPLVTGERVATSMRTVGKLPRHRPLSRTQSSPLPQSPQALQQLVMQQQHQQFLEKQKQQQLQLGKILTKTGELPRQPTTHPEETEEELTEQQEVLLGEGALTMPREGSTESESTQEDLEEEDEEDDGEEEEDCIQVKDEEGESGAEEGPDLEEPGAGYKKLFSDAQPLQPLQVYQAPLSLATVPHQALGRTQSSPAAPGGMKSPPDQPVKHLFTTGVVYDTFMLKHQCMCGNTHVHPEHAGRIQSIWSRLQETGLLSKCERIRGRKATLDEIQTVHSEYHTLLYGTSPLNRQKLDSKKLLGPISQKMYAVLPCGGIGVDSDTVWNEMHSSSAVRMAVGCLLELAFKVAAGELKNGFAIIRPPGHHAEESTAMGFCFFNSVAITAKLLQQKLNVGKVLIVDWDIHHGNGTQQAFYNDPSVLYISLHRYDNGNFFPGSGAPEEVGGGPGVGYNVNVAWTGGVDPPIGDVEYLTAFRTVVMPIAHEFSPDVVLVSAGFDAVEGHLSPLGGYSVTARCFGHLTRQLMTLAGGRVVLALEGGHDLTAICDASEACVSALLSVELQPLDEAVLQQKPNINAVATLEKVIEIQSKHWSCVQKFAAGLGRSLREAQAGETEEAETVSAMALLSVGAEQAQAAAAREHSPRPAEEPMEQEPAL", "conditions": "prostate cancer cells; cited from earlier work"}, "[7]": {"molecular_target": "HDAC9 (Homo sapiens, UniProt Q9UKV0)", "sequence (Q9UKV0 whole entry, species assumed)": "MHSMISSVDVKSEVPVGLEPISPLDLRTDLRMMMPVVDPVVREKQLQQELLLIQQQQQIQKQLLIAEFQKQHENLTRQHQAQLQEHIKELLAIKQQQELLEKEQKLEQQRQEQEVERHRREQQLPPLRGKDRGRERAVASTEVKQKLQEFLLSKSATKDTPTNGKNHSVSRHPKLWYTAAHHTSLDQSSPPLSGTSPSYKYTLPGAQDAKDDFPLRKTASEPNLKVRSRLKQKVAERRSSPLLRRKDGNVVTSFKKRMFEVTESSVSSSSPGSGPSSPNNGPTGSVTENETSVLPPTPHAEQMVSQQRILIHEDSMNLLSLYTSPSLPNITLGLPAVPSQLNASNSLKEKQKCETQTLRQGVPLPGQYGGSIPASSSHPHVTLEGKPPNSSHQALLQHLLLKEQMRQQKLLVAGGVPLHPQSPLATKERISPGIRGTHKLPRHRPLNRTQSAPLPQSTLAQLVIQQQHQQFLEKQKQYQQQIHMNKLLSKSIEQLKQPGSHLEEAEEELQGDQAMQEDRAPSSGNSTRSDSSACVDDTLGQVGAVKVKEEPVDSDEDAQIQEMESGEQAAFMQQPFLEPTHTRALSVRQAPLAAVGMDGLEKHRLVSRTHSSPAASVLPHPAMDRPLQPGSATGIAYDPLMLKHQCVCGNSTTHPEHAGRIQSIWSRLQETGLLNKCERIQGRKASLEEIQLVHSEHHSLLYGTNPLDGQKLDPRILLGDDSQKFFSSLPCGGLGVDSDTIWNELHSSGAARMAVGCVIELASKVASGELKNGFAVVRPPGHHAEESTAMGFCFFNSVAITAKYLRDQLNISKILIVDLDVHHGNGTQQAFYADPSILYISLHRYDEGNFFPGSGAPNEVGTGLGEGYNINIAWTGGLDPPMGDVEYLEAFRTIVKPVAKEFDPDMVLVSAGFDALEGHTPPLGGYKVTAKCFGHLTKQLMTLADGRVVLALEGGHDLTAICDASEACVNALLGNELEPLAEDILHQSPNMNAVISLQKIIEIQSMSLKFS", "conditions": "prostate cancer cells; cited from earlier work"}, "[8]": {"test_system": "breast cancer cells and pancreatic cancer cells", "conditions": "cited from earlier work"}},
  "data": [
    {"smiles": "Cc1cc(Cl)ccc1OCCCC(=O)NO", "note": "[CMH, 4-(4-chloro-2-methylphenoxy)-N-hydroxybutanamide]", "values": [
      {"measurement": "Increase of Ku70 acetylation", "setting": "[1]", "result": "about twofold"},
      {"measurement": "Ku70 acetylation, optical density ratio (OD) in pan-acetyl IB of Ku70 IP", "setting": "[1]; from 2.43 before", "result": 5.6, "unit": "OD"},
      {"measurement": "FLIP downregulation in WB", "setting": "[2]", "result": "about 3.5 fold"},
      {"measurement": "FLIP reduction by flow cytometry", "setting": "[2]", "result": 60, "unit": "%"},
      {"measurement": "FLIP OD in WB", "setting": "[2]; from 1.85", "result": 0.49, "unit": "OD"},
      {"measurement": "FLIP mean fluorescence intensity (MFI), flow cytometry", "setting": "[2]; from 10^3", "result": "10^1"},
      {"measurement": "Ku70 acetylation OD (Ku70-IP, pan-acetyl IB)", "setting": "[3]; from 0.1", "result": 0.91, "unit": "OD"},
      {"measurement": "Ku70 binding to SIRT1 (Ku70-IP, SIRT1 IB)", "setting": "[3]; from 1.2", "result": 0.6},
      {"measurement": "Ku70/FLIP complex OD (Ku70-IP, FLIP IB)", "setting": "[3]; from 2.43", "result": 1.55, "unit": "OD"},
      {"measurement": "Lung fibrosis in in-vivo model, C57BL/6 mice lungs following bleomycin instillation", "setting": "[4]", "result": "attenuate lung fibrosis"},
      {"measurement": "Inhibition of HDAC1", "setting": "[5]", "result": "not inhibited"},
      {"measurement": "Inhibition of HDACS", "setting": "[6]", "result": "not inhibited"},
      {"measurement": "Inhibition of HDAC9", "setting": "[7]", "result": "not inhibited"},
      {"measurement": "Apoptosis", "setting": "[8]", "result": "increase"},
      {"measurement": "FLIP expression", "setting": "[8]", "result": "downregulate"}
    ]}
  ]
}
